From patent US20040185108A1, “Method of preparing gas-filled polymer matrix microparticles useful for delivering drug” (priority 2003, published 2004)

Assay: Release of oxybutynin using ultrasound from oxybutynin-containing polymer matrix microparticles (reverse phase HPLC)
Assay type: physicochemical
Description: Four vials containing product manufactured in accordance with Example 5 were each reconstituted with 10 mL of 20 mM KPO4 at pH 3.5 (wash solution). The oxybutynin containing microparticles from two of the vials were retrieved by centrifugation at 1500 rpm for 15 minutes. The microparticles were resuspended in 10 mL of wash solution and vortexed. The washing procedure was repeated two more times. The final washed matrix microparticles were resuspended in a total volume of 10 mL of wash solution. The remaining two vials were not washed. One vial from each set was designated the control sample and the other vial was the experimental sample.
The controls remained undisturbed for 80 minutes to allow the matrix microparticles to float. The subnatant was removed and centrifuged at 14,000 rpm for 2 minutes. The experimental samples were each sonicated for 1 minute on level 5 using a Virtis Virsonic hand-held sonicator. […] The suspensions were centrifuged at 14,000 rpm for 2 minutes. All four of the resulting supernatants were retrieved and analyzed by reverse phase HPLC. […] The amount of oxybutynin in each sample was calculated from the area using the standard curve.

With `CCN(CC)CC#CCOC(=O)C(O)(c1ccccc1)C1CCCCC1` (centres unmarked) [oxybutynin] the “burst release of oxybutynin, of the recovered amount” value (microparticles of Example 5) was 34%, the “oxybutynin released due to sonication, of the recovered amount” value (microparticles of Example 5) was 66% and the “amount of oxybutynin in supernatant, unwashed control sample” value (microparticles of Example 5, unwashed, not sonicated, undisturbed 80 minutes) was 0.65 mg oxybutynin/vial. For the same compound, the “amount of oxybutynin in supernatant, unwashed experimental sample” value (microparticles of Example 5, unwashed, sonicated 1 minute level 5) was 1.93 mg/vial, the “leakage of drug after reconstitution” value (microparticles of Example 5, washed control, burst release removed) was “little to no leakage” and the “amount of oxybutynin in supernatant, washed control sample” value (microparticles of Example 5, washed, not sonicated, undisturbed 80 minutes, 20 mM KPO4 pH 3.5) was 0.03 mg oxybutynin/vial. The “amount of oxybutynin in supernatant, washed experimental sample” value (microparticles of Example 5, washed, sonicated 1 minute level 5, 20 mM KPO4 pH 3.5) was 1.05 mg/vial and the “total oxybutynin recovered after sonication compared to theoretical loading” value (microparticles of Example 5, theoretical loading 2.4 mg/vial) was 80%.
